Data as given in article PMC5830302 (ACS chemical biology, 2017).

Target: ClbQ (Escherichia coli, UniProt Q0P7K7)
Assay: DTNB-based continuous spectrophotometric thioesterase assay
Type: biochemical
Conditions: 100 mM Tris HCl, pH 7.4, 20 mM NaCl, 100 uM DTNB, 100 nM ClbQ, 37 °C

Structure (SMILES) | DTNB-based continuous spectrophotometric thioesterase assay (412 nm)
CCCCCCCCCCCCCC(=O)SCCNC(C)=O [myristoyl-SNAC] | ClbQ has thioesterase activity with model straight-chain acyl-SNACs
CC(=O)NCCSC(C)=O [acetyl-SNAC] | ClbQ has thioesterase activity with model straight-chain acyl-SNACs
